Source: paper PMC12207910 (European journal of pharmaceutical sciences : official …, 2024)
In brackets after ≈: the same amount, converted by molar mass. Read-outs that look alike come from different tables or passages of the source.

Key:
A. fumigatus (Af-293) [1] = assay: Kill kinetics assay; format: cell-based, Aspergillus fumigatus; settings: MIC and 4×MIC, compared to 3b and 4b
A. fumigatus (Af-293) [2] = assay: microbe, parasite or virus in culture; format: cell-based; settings: Aspergillus fumigatus, read-out: MIC A. fumigatus (Af-293)
A. fumigatus (Af-293) [3] = assay: microbe, parasite or virus in culture; format: cell-based, Aspergillus fumigatus; settings: Aspergillus fumigatus
C. albicans (ATCC 60193) [4] = assay: Kill kinetics assay; format: cell-based; settings: MIC and 4×MIC, compared to 3b and 4b
C. albicans (ATCC 10132) = assay: microbe, parasite or virus in culture; settings: Candida albicans, ATCC10132, read-out: MIC C. albicans (ATCC 10132)
C. albicans (ATCC 60193) [5] = assay: microbe, parasite or virus in culture; format: cell-based; settings: Candida albicans
C. albicans (ATCC 60193) [6] = assay: microbe, parasite or virus in culture; settings: Candida albicans, ATCC60193, read-out: MIC C. albicans (ATCC 60193)
C. krusii (ATCC 6258) = assay: organism not typed; settings: read-out: MIC C. krusii (ATCC 6258)

MIC (C. albicans (ATCC 10132)) [µg/mL]	MIC (C. albicans (ATCC 60193) [5]; ATCC60193, read-out: MIC CaCl2) [µg/mL]	MIC (C. albicans (ATCC 60193) [5]; ATCC60193, read-out: MIC Control) [µg/mL]	MIC (C. albicans (ATCC 60193) [5]; ATCC60193, read-out: MIC FBS (25%)) [µg/mL]	MIC (C. albicans (ATCC 60193) [5]; ATCC60193, read-out: MIC KCl) [µg/mL]	MIC (C. albicans (ATCC 60193) [5]; ATCC60193, read-out: MIC MgCl2) [µg/mL]	MIC (C. albicans (ATCC 60193) [5]; ATCC60193, read-out: MIC NH4Cl) [µg/mL]	MIC (C. albicans (ATCC 60193) [5]; ATCC60193, read-out: MIC NaCl) [µg/mL]	MIC (C. albicans (ATCC 60193) [6]) [µg/mL]	MIC (C. krusii (ATCC 6258)) [µg/mL]	SMILES	fungicidal effect in kill kinetics (A. fumigatus (Af-293) [1])	MIC (A. fumigatus (Af-293) [2]) [µg/mL]	MIC (A. fumigatus (Af-293) [3]; read-out: MIC CaCl2) [µg/mL]	MIC (A. fumigatus (Af-293) [3]; read-out: MIC Control) [µg/mL]	MIC (A. fumigatus (Af-293) [3]; read-out: MIC FBS (25%)) [µg/mL]	MIC (A. fumigatus (Af-293) [3]; read-out: MIC KCl) [µg/mL]	MIC (A. fumigatus (Af-293) [3]; read-out: MIC MgCl2) [µg/mL]	MIC (A. fumigatus (Af-293) [3]; read-out: MIC NH4Cl) [µg/mL]	MIC (A. fumigatus (Af-293) [3]; read-out: MIC NaCl) [µg/mL]	fungicidal effect in kill kinetics (C. albicans (ATCC 60193) [4])
–	–	–	–	–	–	–	–	–	–	C[C@@H]1[C@H](O)[C@@H](C)/C=C/C=C/C=C/C=C/C=C/C=C/C=C/[C@H](O[C@@H]2O[C@H](C)[C@@H](O)[C@H](N)[C@@H]2O)C[C@@H]2O[C@](O)(C[C@@H](O)C[C@@H](O)[C@H](O)CC[C@@H](O)C[C@@H](O)CC(=O)O[C@H]1C)C[C@H](O)[C@H]2C(=O)O [Amphotericin B, reference compound]	mild fungicidal effect	0.7 (≈ 0.758 µM)	0.7 (≈ 0.758 µM)	0.7 (≈ 0.758 µM)	0.7 (≈ 0.758 µM)	0.7 (≈ 0.758 µM)	1.5 (≈ 1.62 µM)	0.7 (≈ 0.758 µM)	0.7 (≈ 0.758 µM)	–
0.7 (≈ 2.29 µM)	1.5 (≈ 4.9 µM)	1.5 (≈ 4.9 µM)	1.5 (≈ 4.9 µM)	1.5 (≈ 4.9 µM)	1.5 (≈ 4.9 µM)	1.5 (≈ 4.9 µM)	1.5 (≈ 4.9 µM)	1.5 (≈ 4.9 µM)	0.7 (≈ 2.29 µM)	OC(Cn1cncn1)(Cn1cncn1)c1ccc(F)cc1F [Fluconazole]	–	–	–	–	–	–	–	–	–	mild fungicidal effect
